Experimental data from patent US8975417B2, “Pyrazolopyrrolidine derivatives and their use in the treatment of disease” (Novartis AG, priority 2013, dated 2015).

Key:
[1] = tested on: THP-1 cells; assay: Cell growth inhibition assay (CellTiter-Glo), THP-1; format: cell-based; settings: Homo sapiens, read-out: THP-1 TGI
Procedure, shortened: (§1)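 CTG luminescence (cellular ATP) after compound treatment; values background- and day 0-corrected, vehicle (0.1% DMSO) = 100%, medium only = −100%. Dose range: 3-fold dilutions from 10 μM. IC50/TGI by 4-parameter fit.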

[2] = tested on: K-562 cells; assay: Cell growth inhibition assay (CellTiter-Glo), K-562; format: cell-based, human; settings: Homo sapiens, K562, read-out: K-562 TGI
Procedure, shortened: as §1

[3] = biological target: His-Brd4(44-477) (Homo sapiens (Human), UniProt O60885); assay: TR-FRET in-vitro binding assay for BRD4; settings: biochemical
Procedure, shortened: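 Eight-point dilution series tested against in-house His-BRD2(60-472), BRD3(20-477) or BRD4(44-477) (45 nM in dispensed solution) binding acetyl-histone H4 (AcK5,8,12,16; 60 nM in dispensed solution). Incubation 35 min at 30 °C, pH 7.5 HEPES buffer; detection by TR-FRET using Eu-anti-His6 and streptavidin-allophycocyanin.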

| Structure (SMILES) | IC (total growth inhibition) [1] | IC (total growth inhibition) [2] | IC50 [3] |
| --- | --- | --- | --- |
| Cc1nn(C2CN(C)C2)c2c1C(c1ccc(Cl)cc1)N(c1cc(C)c(=O)n(C)c1)C2=O (stereo not drawn) [Example 140, 4-(4-chlorophenyl)-5-(1,5-dimethyl-6-oxo-1,6-dihydropyridin-3-yl)-3-methyl-1-(1-methylazetidin-3-yl)-4,5-dihydropyrrolo[3,4-c]pyrazol-6(1H)-one] | 0.925 µM | > 10 µM | 320 nM |
| Cc1ncccc1-n1nc2c(c1C)C(c1ccc(Cl)cc1)N(c1cc(C)c(=O)n(C)c1)C2=O (stereo not drawn) [Example 81, 4-(4-chlorophenyl)-5-(1,5-dimethyl-6-oxo-1,6-dihydropyridin-3-yl)-3-methyl-2-(2-methylpyridin-3-yl)-4,5-dihydropyrrolo[3,4-c]pyrazol-6(2H)-one] | 0.422 µM | > 10 µM | 110 nM |
| COc1c2c(nn1C)C(=O)N(c1cc(C)c(=O)n(C)c1)C2c1ccc(Cl)cc1 (stereo not drawn) [Example 77, 4-(4-chlorophenyl)-5-(1,5-dimethyl-6-oxo-1,6-dihydropyridin-3-yl)-3-methoxy-2-methyl-4,5-dihydropyrrolo[3,4-c]pyrazol-6(2H)-one] | 0.37 µM | > 10 µM | 130 nM |
| COc1ncccc1-n1nc(C)c2c1C(=O)N(c1cc(C)c(=O)n(C)c1)[C@@H]2c1ccc(Cl)cc1 [Example 128, (R)-4-(4-chlorophenyl)-5-(1,5-dimethyl-6-oxo-1,6-dihydropyridin-3-yl)-1-(2-methoxypyridin-3-yl)-3-methyl-4,5-dihydropyrrolo[3,4-c]pyrazol-6(1H)-one] | 0.107 µM | > 10 µM | 36 nM |
| Cc1cc(N2C(=O)c3c(c(C4CC4)nn3-c3ccnn3C)C2c2ccc(Cl)cc2)cn2c(C)nnc12 (stereo not drawn) [Example 117, 4-(4-chlorophenyl)-3-cyclopropyl-5-(3,8-dimethyl-[1,2,4]triazolo[4,3-a]pyridin-6-yl)-1-(1-methyl-1H-pyrazol-5-yl)-4,5-dihydropyrrolo[3,4-c]pyrazol-6(1H)-one] | 0.0671 µM | > 10 µM | 39 nM |
| COCc1nn(C2CC2)c2c1C(c1ccc(Cl)cc1)N(c1cc(C)c3nnc(C)n3c1)C2=O (stereo not drawn) [Example 130, 4-(4-chlorophenyl)-1-cyclopropyl-5-(3,8-dimethyl-[1,2,4]triazolo[4,3-a]pyridin-6-yl)-3-(methoxymethyl)-4,5-dihydropyrrolo[3,4-c]pyrazol-6(1H)-one] | 0.0813 µM | > 10 µM | 42 nM |
| CC(=O)N1CC(n2nc(C)c3c2C(=O)N(c2cc(C)c(=O)n(C)c2)C3c2ccc(Cl)cc2)C1 (stereo not drawn) [Example 153, 1-(1-acetylazetidin-3-yl)-4-(4-chlorophenyl)-5-(1,5-dimethyl-6-oxo-1,6-dihydropyridin-3-yl)-3-methyl-4,5-dihydropyrrolo[3,4-c]pyrazol-6(1H)-one] | 0.515 µM | > 10 µM | 140 nM |
| CCc1nn(CCOCC(F)(F)F)c2c1C(c1ccc(Cl)cc1)N(c1cc(OC)c3nnc(C)n3c1)C2=O (stereo not drawn) [Example 108, 4-(4-chlorophenyl)-3-ethyl-5-(8-methoxy-3-methyl-[1,2,4]triazolo[4,3-a]pyridin-6-yl)-1-(2-(2,2,2-trifluoroethoxy)ethyl)-4,5-dihydropyrrolo[3,4-c]pyrazol-6(1H)-one] | 0.832 µM | > 10 µM | 140 nM |
| Cc1nn(C(C)C)c2c1[C@@H](c1ccc(Cl)cc1)N(c1cc(C)c(=O)n(C)c1)C2=O [Example 104, (R)-4-(4-chlorophenyl)-5-(1,5-dimethyl-6-oxo-1,6-dihydropyridin-3-yl)-1-isopropyl-3-methyl-4,5-dihydropyrrolo[3,4-c]pyrazol-6(1H)-one] | 0.045 µM | > 10 µM | 13 nM |
| Cc1nn(C2CC2)c2c1[C@@H](c1ccc(Cl)cc1)N(c1cc(C)c3nnc(C)n3n1)C2=O [Example 122, (R)-4-(4-chlorophenyl)-1-cyclopropyl-5-(3,8-dimethyl-[1,2,4]triazolo[4,3-b]-pyridazin-6-yl)-3-methyl-4,5-dihydropyrrolo[3,4-c]pyrazol-6(1H)-one] | 0.0107 µM | > 10 µM | < 11 nM |
| Cc1nn(-c2ccnn2C)c2c1[C@@H](c1ccc(Cl)cc1)N(c1cc(C)c(=O)n(C)c1)C2=O [Example 120, (R)-4-(4-chlorophenyl)-5-(1,5-dimethyl-6-oxo-1,6-dihydropyridin-3-yl)-3-methyl-1-(1-methyl-1H-pyrazol-5-yl)-4,5-dihydropyrrolo[3,4-c]pyrazol-6(1H)-one] | 0.165 µM | > 10 µM | 55 nM |
| Cc1nn(-c2ccnn2C)c2c1C(c1ccc(Cl)cc1)N(c1cc(C)c3nnc(C)n3n1)C2=O (stereo not drawn) [Example 114, 4-(4-chlorophenyl)-5-(3,8-dimethyl-[1,2,4]triazolo[4,3-b]pyridazin-6-yl)-3-methyl-1-(1-methyl-1H-pyrazol-5-yl)-4,5-dihydropyrrolo[3,4-c]pyrazol-6(1H)-one] | 0.0765 µM | > 10 µM | 27 nM |
| Cc1nn(-c2ccnn2C)c2c1[C@H](c1ccc(Cl)cc1)N(c1cc(C)c(=O)n(C)c1)C2=O [Example 121, (S)-4-(4-chlorophenyl)-5-(1,5-dimethyl-6-oxo-1,6-dihydropyridin-3-yl)-3-methyl-1-(1-methyl-1H-pyrazol-5-yl)-4,5-dihydropyrrolo[3,4-c]pyrazol-6(1H)-one] | 5.03 µM | > 10 µM | 4000 nM |
| Cc1nn(C2CNC2)c2c1C(c1ccc(Cl)cc1)N(c1cc(C)c3nnc(C)n3c1)C2=O (stereo not drawn) [Example 151, 1-(azetidin-3-yl)-4-(4-chlorophenyl)-5-(3,8-dimethyl-[1,2,4]triazolo[4,3-a]pyridin-6-yl)-3-methyl-4,5-dihydropyrrolo[3,4-c]pyrazol-6(1H)-one] | 1.33 µM | > 10 µM | 130 nM |
| Cc1ncccc1-n1nc(C)c2c1C(=O)N(c1cc(C)c(=O)n(C)c1)C2c1ccc(Cl)cc1 (stereo not drawn) [Example 82, 4-(4-chlorophenyl)-5-(1,5-dimethyl-6-oxo-1,6-dihydropyridin-3-yl)-3-methyl-1-(2-methylpyridin-3-yl)-4,5-dihydropyrrolo[3,4-c]pyrazol-6(1H)-one] | 0.406 µM | > 10 µM | 68 nM |
| Cc1nn(C2CCC2)c2c1C(c1ccc(Cl)cc1)N(c1cc(C)c(=O)n(C)c1)C2=O (stereo not drawn) [Example 94, 4-(4-chlorophenyl)-1-cyclobutyl-5-(1,5-dimethyl-6-oxo-1,6-dihydropyridin-3-yl)-3-methyl-4,5-dihydropyrrolo[3,4-c]pyrazol-6(1H)-one] | 0.0765 µM | > 10 µM | 24 nM |
| CCOC(=O)N1CC(n2nc(C)c3c2C(=O)N(c2cc(C)c(=O)n(C)c2)C3c2ccc(Cl)cc2)C1 (stereo not drawn) [Example 155, Ethyl 3-(4-(4-chlorophenyl)-5-(1,5-dimethyl-6-oxo-1,6-dihydropyridin-3-yl)-3-methyl-6-oxo-5,6-dihydropyrrolo[3,4-c]pyrazol-1(4H)-yl)azetidine-1-carboxylate] | 0.305 µM | > 10 µM | 87 nM |
| CCn1nc2c(c1C)C(c1ccc(Cl)cc1)N(c1cc(C)c3nnc(C)n3c1)C2=O (stereo not drawn) [Example 115, 4-(4-chlorophenyl)-5-(3,8-dimethyl-[1,2,4]triazolo[4,3-a]pyridin-6-yl)-2-ethyl-3-methyl-4,5-dihydropyrrolo[3,4-c]pyrazol-6(2H)-one] | 0.0712 µM | > 10 µM | 43 nM |
| CCc1nn(CCO)c2c1C(c1ccc(Cl)cc1)N(c1cc(C)c3onc(C)c3c1)C2=O (stereo not drawn) [Example 79, 4-(4-chlorophenyl)-5-(3,7-dimethylbenzo[d]isoxazol-5-yl)-3-ethyl-1-(2-hydroxyethyl)-4,5-dihydropyrrolo[3,4-c]pyrazol-6(1H)-one] | 0.461 µM | > 10 µM | 78 nM |
| Cc1nn(C2CC2)c2c1C(c1ccc(Cl)cc1)N(c1ccc3nnn(C)c3n1)C2=O (stereo not drawn) [Example 102, 4-(4-chlorophenyl)-1-cyclopropyl-3-methyl-5-(3-methyl-3H-[1,2,3]triazolo[4,5-b]-pyridin-5-yl)-4,5-dihydropyrrolo[3,4-c]pyrazol-6(1H)-one] | 0.304 µM | > 10 µM | 59 nM |
| Cc1nn(C2CC2)c2c1C(c1cccc(C(F)(F)F)c1)N(c1cc(C)c(=O)n(C)c1)C2=O (stereo not drawn) [Example 96, 1-cyclopropyl-5-(1,5-dimethyl-6-oxo-1,6-dihydropyridin-3-yl)-3-methyl-4-(3-(trifluoromethyl)phenyl)-4,5-dihydropyrrolo[3,4-c]pyrazol-6(1H)-one] | 2.55 µM | > 10 µM | 780 nM |
| COc1ncc(-n2nc(C)c3c2C(=O)N(c2cc(C)c(=O)n(C)c2)[C@@H]3c2ccc(Cl)cc2)c(OC)n1 [Example 100, (R)-4-(4-chlorophenyl)-1-(2,4-dimethoxypyrimidin-5-yl)-5-(1,5-dimethyl-6-oxo-1,6-dihydropyridin-3-yl)-3-methyl-4,5-dihydropyrrolo[3,4-c]pyrazol-6(1H)-one] | 0.153 µM | > 10 µM | 25 nM |
